Assay results published in ChEMBL document CHEMBL1139006, “Synthesis and in vitro antibiotic activity of 16-membered 9-O-arylalkyloxime macrolides” (2006).
In brackets after ≈: the same amount, converted by molar mass.

Key:
Format in all cases: functional
Streptococcus pneumoniae [1] = test: Antibacterial activity against macrolide resistant Streptococcus pneumoniae ATCC 700677
Streptococcus pneumoniae [2] = test: Antibacterial activity against macrolide resistant Streptococcus pneumoniae ATCC 700906
Streptococcus pneumoniae [3] = test: Antibacterial activity against macrolide resistant Streptococcus pneumoniae ATCC 700676
Streptococcus pneumoniae [4] = test: Antibacterial activity against Streptococcus pneumoniae ATCC 6301
Haemophilus influenzae [5] = test: Antibacterial activity against Haemophilus influenzae ATCC 49766
Streptococcus pneumoniae [6] = test: Antibacterial activity against Streptococcus pneumoniae ATCC 49619
Haemophilus influenzae [7] = test: Antibacterial activity against Haemophilus influenzae EH001
Haemophilus influenzae [8] = test: Antibacterial activity against Haemophilus influenzae ATCC 9006
Streptococcus pneumoniae [9] = test: Antibacterial activity against Streptococcus pneumoniae ATCC 700671
Haemophilus influenzae [10] = test: Antibacterial activity against Haemophilus influenzae EH003
Streptococcus pneumoniae [11] = test: Antibacterial activity against macrolide resistant Streptococcus pneumoniae ATCC 700905
Haemophilus influenzae [12] = test: Antibacterial activity against Haemophilus influenzae EH002
[13] = test system: Staphylococcus epidermidis; test: Antibacterial activity against Staphylococcus epidermidis ATCC 12228
Enterococcus faecalis = test: Antibacterial activity against Enterococcus faecalis ATCC 51575
Staphylococcus aureus [14] = test: Antibacterial activity against macrolide resistant Staphylococcus aureus ATCC BAA-44
Staphylococcus aureus [15] = test: Antibacterial activity against macrolide resistant Staphylococcus aureus ATCC 141541
Staphylococcus aureus [16] = test: Antibacterial activity against Staphylococcus aureus ATCC 29213
Staphylococcus aureus [17] = test: Antibacterial activity against macrolide resistant Staphylococcus aureus ATCC BAA-39
Staphylococcus aureus [18] = test: Antibacterial activity against Staphylococcus aureus ATCC 6538p
Staphylococcus aureus [19] = test: Antibacterial activity against macrolide resistant Staphylococcus aureus ATCC 33591

Compound | MIC (Streptococcus pneumoniae [1]) | MIC (Streptococcus pneumoniae [2]) | MIC (Streptococcus pneumoniae [3]) | MIC (Streptococcus pneumoniae [4]) | MIC (Haemophilus influenzae [5]) | MIC (Streptococcus pneumoniae [6]) | MIC (Haemophilus influenzae [7]) | MIC (Haemophilus influenzae [8]) | MIC (Streptococcus pneumoniae [9]) | MIC (Haemophilus influenzae [10]) | MIC (Streptococcus pneumoniae [11]) | MIC (Haemophilus influenzae [12]) | MIC [13] | MIC (Enterococcus faecalis) | MIC (Staphylococcus aureus [14]) | MIC (Staphylococcus aureus [15]) | MIC (Staphylococcus aureus [16]) | MIC (Staphylococcus aureus [17]) | MIC (Staphylococcus aureus [18]) | MIC (Staphylococcus aureus [19])
CC[C@H]1OC(=O)[C@H](C)C(=O)[C@H](C)[C@@H](O[C@@H]2O[C@H](C)C[C@H](N(C)C)[C@H]2O)[C@](C)(OC)C[C@@H](C)C(=O)[C@H](C)[C@H]2N(CCCCn3cnc(-c4cccnc4)c3)C(=O)O[C@]12C [TELITHROMYCIN] | 0.025 µg/mL (≈ 0.0308 µM) | 0.2 µg/mL (≈ 0.246 µM) | 0.098 µg/mL (≈ 0.121 µM) | 0.025 µg/mL (≈ 0.0308 µM) | 3.12 µg/mL (≈ 3.84 µM) | 0.049 µg/mL (≈ 0.0603 µM) | 1.56 µg/mL (≈ 1.92 µM) | 1.56 µg/mL (≈ 1.92 µM) | 0.025 µg/mL (≈ 0.0308 µM) | 1.56 µg/mL (≈ 1.92 µM) | 0.025 µg/mL (≈ 0.0308 µM) | 6.25 µg/mL (≈ 7.7 µM) |  |  |  |  |  |  |  | 
CC[C@H]1OC(=O)C[C@@H](O)[C@H](C)[C@@H](O[C@@H]2O[C@H](C)[C@@H](O)[C@H](N(C)C)[C@H]2O)[C@@H](C=O)C[C@@H](C)C(=N\OCCCc2ccc3ncccc3c2)/C=C/C(C)=C/C1CO (some centres undefined) | > 12.5 µg/mL | > 12.5 µg/mL | 0.025 µg/mL (≈ 0.0326 µM) | 0.025 µg/mL (≈ 0.0326 µM) | 3.12 µg/mL (≈ 4.06 µM) | 0.025 µg/mL (≈ 0.0326 µM) | 3.12 µg/mL (≈ 4.06 µM) | 1.56 µg/mL (≈ 2.03 µM) | 0.098 µg/mL (≈ 0.128 µM) | 3.12 µg/mL (≈ 4.06 µM) | 0.025 µg/mL (≈ 0.0326 µM) | 6.25 µg/mL (≈ 8.14 µM) |  |  |  |  |  |  |  | 
CC[C@H]1OC(=O)C[C@@H](O)[C@H](C)[C@@H](O[C@@H]2O[C@H](C)[C@@H](O)[C@H](N(C)C)[C@H]2O)[C@@H](CC=O)C[C@@H](C)C(=N/OCCCCc2cnc3ccccc3c2)/C=C/C(C)=C/C1CO (some centres undefined) | 0.025 µg/mL (≈ 0.0314 µM) | > 12.5 µg/mL | 0.025 µg/mL (≈ 0.0314 µM) | 0.025 µg/mL (≈ 0.0314 µM) | 6.25 µg/mL (≈ 7.85 µM) | 0.049 µg/mL (≈ 0.0616 µM) |  | 6.25 µg/mL (≈ 7.85 µM) | 0.025 µg/mL (≈ 0.0314 µM) |  | 0.025 µg/mL (≈ 0.0314 µM) |  | 0.2 µg/mL (≈ 0.251 µM) | > 12.5 µg/mL | > 12.5 µg/mL | 0.2 µg/mL (≈ 0.251 µM) | 0.2 µg/mL (≈ 0.251 µM) | > 12.5 µg/mL | 0.025 µg/mL (≈ 0.0314 µM) | > 12.5 µg/mL
CC[C@H]1OC(=O)C[C@@H](O)[C@H](C)[C@@H](O[C@@H]2O[C@H](C)[C@@H](O)[C@H](N(C)C)[C@H]2O)[C@@H](CCN2CC(C)CC(C)C2)C[C@@H](C)C(=N/OCCCc2ccc3ncccc3c2)/C=C/C(C)=C/C1CO (some centres undefined) | > 12.5 µg/mL | > 12.5 µg/mL | 0.025 µg/mL (≈ 0.0284 µM) | 0.025 µg/mL (≈ 0.0284 µM) | 3.12 µg/mL (≈ 3.55 µM) | 0.025 µg/mL (≈ 0.0284 µM) | 3.12 µg/mL (≈ 3.55 µM) | 1.56 µg/mL (≈ 1.77 µM) | 0.049 µg/mL (≈ 0.0557 µM) | 1.56 µg/mL (≈ 1.77 µM) | 0.025 µg/mL (≈ 0.0284 µM) | 3.12 µg/mL (≈ 3.55 µM) |  |  |  |  |  |  |  | 
CC[C@H]1OC(=O)C[C@@H](O)[C@H](C)[C@@H](O[C@@H]2O[C@H](C)[C@@H](O)[C@H](N(C)C)[C@H]2O)[C@@H](CC=O)C[C@@H](C)C(=N\OCCCOc2ccc3ncccc3c2)/C=C/C(C)=C/C1CO (some centres undefined) | 0.2 µg/mL (≈ 0.251 µM) | > 12.5 µg/mL | 0.025 µg/mL (≈ 0.0313 µM) | 0.025 µg/mL (≈ 0.0313 µM) | 6.25 µg/mL (≈ 7.83 µM) | 0.01 µg/mL (≈ 0.0125 µM) |  | 6.25 µg/mL (≈ 7.83 µM) | 0.025 µg/mL (≈ 0.0313 µM) |  | 0.025 µg/mL (≈ 0.0313 µM) |  | 0.098 µg/mL (≈ 0.123 µM) | > 12.5 µg/mL | > 12.5 µg/mL | 0.2 µg/mL (≈ 0.251 µM) | 0.098 µg/mL (≈ 0.123 µM) | > 12.5 µg/mL | 0.025 µg/mL (≈ 0.0313 µM) | > 12.5 µg/mL
CC[C@H]1OC(=O)C[C@@H](O)[C@H](C)[C@@H](O[C@@H]2O[C@H](C)[C@@H](O)[C@H](N(C)C)[C@H]2O)[C@@H](CC=O)C[C@@H](C)C(=O)/C=C/C(C)=C/C1CO (some centres undefined) | 6.25 µg/mL (≈ 10.5 µM) | > 12.5 µg/mL | 0.78 µg/mL (≈ 1.3 µM) | 0.025 µg/mL (≈ 0.0418 µM) | 1.56 µg/mL (≈ 2.61 µM) | 0.098 µg/mL (≈ 0.164 µM) | 3.12 µg/mL (≈ 5.22 µM) | 1.56 µg/mL (≈ 2.61 µM) | 0.049 µg/mL (≈ 0.082 µM) | 1.56 µg/mL (≈ 2.61 µM) | 0.78 µg/mL (≈ 1.3 µM) | 6.25 µg/mL (≈ 10.5 µM) | 0.39 µg/mL (≈ 0.652 µM) | > 12.5 µg/mL | > 12.5 µg/mL | 1.56 µg/mL (≈ 2.61 µM) | 0.78 µg/mL (≈ 1.3 µM) | > 12.5 µg/mL | 0.39 µg/mL (≈ 0.652 µM) | > 12.5 µg/mL
CC[C@H]1OC(=O)C[C@@H](O)[C@H](C)[C@@H](O[C@@H]2O[C@H](C)[C@@H](O)[C@H](N(C)C)[C@H]2O)[C@@H](CC=O)C[C@@H](C)C(=N/OCCCCOc2ccc3ncccc3c2)/C=C/C(C)=C/C1CO (some centres undefined) | 0.39 µg/mL (≈ 0.48 µM) | > 12.5 µg/mL | 0.025 µg/mL (≈ 0.0308 µM) | 0.025 µg/mL (≈ 0.0308 µM) |  | 0.01 µg/mL (≈ 0.0123 µM) |  |  | 0.025 µg/mL (≈ 0.0308 µM) |  | 0.025 µg/mL (≈ 0.0308 µM) |  | 0.2 µg/mL (≈ 0.246 µM) | > 12.5 µg/mL | > 12.5 µg/mL | 0.78 µg/mL (≈ 0.961 µM) | 0.78 µg/mL (≈ 0.961 µM) | > 12.5 µg/mL | 0.2 µg/mL (≈ 0.246 µM) | > 12.5 µg/mL
CC[C@H]1OC(=O)[C@H](C)[C@@H](O[C@H]2C[C@@](C)(OC)[C@@H](O)[C@H](C)O2)[C@H](C)[C@@H](O[C@@H]2O[C@H](C)C[C@H](N(C)C)[C@H]2O)[C@](C)(O)C[C@@H](C)C(=O)[C@H](C)[C@@H](O)[C@]1(C)O [ERYTHROMYCIN] | 6.25 µg/mL (≈ 8.52 µM) | > 12.5 µg/mL | 6.25 µg/mL (≈ 8.52 µM) | 0.025 µg/mL (≈ 0.0341 µM) | 6.25 µg/mL (≈ 8.52 µM) | 0.049 µg/mL (≈ 0.0668 µM) | 3.12 µg/mL (≈ 4.25 µM) | 1.56 µg/mL (≈ 2.13 µM) | 0.049 µg/mL (≈ 0.0668 µM) | 3.12 µg/mL (≈ 4.25 µM) | 3.12 µg/mL (≈ 4.25 µM) | 6.25 µg/mL (≈ 8.52 µM) | 0.2 µg/mL (≈ 0.273 µM) | > 12.5 µg/mL | > 12.5 µg/mL |  | 0.2 µg/mL (≈ 0.273 µM) | > 12.5 µg/mL | 0.098 µg/mL (≈ 0.134 µM) | > 12.5 µg/mL
